Data from PubChem BioAssay AID434930 (Broad Institute, 2010).
Records with an inconclusive call do not appear. Calls of active or inactive are those of the source.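 How the source made its calls: active means fitted EC50 no higher than ten times the highest tested concentration; inconclusive means flat fit with 30 to 70% inhibition, or poor fit; inactive means EC50 beyond ten times the top tested dose.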

Each compound was assayed on C. albicans CaCi-2 + fluconazole, Alamar Blue growth, 48 h (assay: fluconazole-resistant Candida growth suppression, fluconazole present – C. albicans CaCi-2 (fluconazole-resistant clinical isolate), fluorescence, retest, dose response (AID 434930)).

| SMILES | EC50 |
| --- | --- |
| CC(C)N1CCc2c(sc(NC(=O)c3nc4ccccc4s3)c2C(N)=O)C1 | 1190 nM |
| O=C(Nc1nnc(-c2ccco2)o1)c1ccc(Cl)cc1 | 1280 nM |
| CC(C)COCc1ccc(O)c2ncccc12 | 16500 nM |
| O=C(Nc1nc(-c2ccccn2)cs1)c1ccc(Br)s1 | 11100 nM |
| Cc1ccc(C(=O)Nc2cccc(-c3cn4ccccc4n3)c2)cc1 | 6790 nM |
| O=C(Nc1sc2c(c1C(=O)c1ccc(Cl)cc1)CCCC2)c1cccnc1 | 1830 nM |
| COc1cc2c(cc1NC(=O)c1ccco1)CCCC2 | 103 nM |
| Cc1oc2c(F)c(F)c(F)c(F)c2c1S(=O)(=O)Nc1cccc(C(F)(F)F)c1 | 10800 nM |
| Nc1nccnc1C(=O)Nc1nnc(SCc2ccc(Cl)cc2)s1 | 2110 nM |
| O=C(Nc1nnc(CCc2ccccc2)s1)c1ccco1 | 3080 nM |
| O=C(Nc1nnc(-c2ccc3c(c2)CCCC3)o1)c1ccc(Cl)cc1Cl | 321 nM |
| CCOC(=O)N1C(=O)C2(CCCCC2)N(c2ccc(C)cc2)C1=S | < 100 nM |
| COc1ccc(-n2nc(C(=O)NCC(=O)N3CCN(c4ccccc4)CC3)c3ccccc3c2=O)c(OC)c1 | 7170 nM |
| CCCC(=O)NC(c1ccccc1)c1ccc2cccnc2c1O (stereo not drawn) | 577 nM |
| COc1ccc(-c2nnc(NC(=O)c3ccc(F)cc3)o2)cc1 | 489 nM |
| O=C(Oc1c(Cl)cc(Cl)c2cccnc12)c1cccs1 | 280 nM |
| CCCC(=O)NC(c1ccc(Cl)cc1)c1ccc2cccnc2c1O (stereo not drawn) | 486 nM |
| Cc1ccc(C(=O)c2coc3c2C(=O)C(=O)c2ccccc2-3)cc1 | 2890 nM |
| O=c1c2cc(Br)ccc2nc(-c2cccc(C(F)(F)F)c2)n1O | 4160 nM |
| Clc1ccc2c(c1)C(c1cccs1)=NNC(c1cccnc1)=N2 | 77.8 nM |
| Cc1nc2ccccc2cc1OCc1ccc(F)cc1 | 8450 nM |
| O=C(NNC1=C(C(=O)C(F)(F)F)CCC1)c1ccc(Cl)cc1 | 18800 nM |
| Cc1ccc(/C=C/C(=O)c2ccccc(=O)c2O)cc1C | > 26000 nM (inactive) |
